# Data as given in patent publication US12344603B2 (Genentech, Inc., priority 2020, dated 2025).
# Where a name gives a salt, the structure may show the parent alone.
# Biological target: IRE1α (Homo sapiens (Human), UniProt O75460, D688N)
# Assay: IRE1α TR-FRET competition binding assay (IRE1α HTRF)
# Conditions: TR-FRET competition binding to kinase domain of IRE1α
# Procedure, shortened: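 Kinase domain (0.25 nM) pre-bound to 2 nM Eu anti-His antibody for 1 h at 4° C in HEPES pH 7.5/MgCl2/Brij 35/DTT/gamma globulin buffer, then mixed with compounds and 2 nM Alexa 647 ATP-competitive probe. 1 h at room temperature; probe displacement read as TR-FRET (Ex 347 nm, Em 665/615 nm).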
# Sequence of IRE1α (O75460 547-977 D688N): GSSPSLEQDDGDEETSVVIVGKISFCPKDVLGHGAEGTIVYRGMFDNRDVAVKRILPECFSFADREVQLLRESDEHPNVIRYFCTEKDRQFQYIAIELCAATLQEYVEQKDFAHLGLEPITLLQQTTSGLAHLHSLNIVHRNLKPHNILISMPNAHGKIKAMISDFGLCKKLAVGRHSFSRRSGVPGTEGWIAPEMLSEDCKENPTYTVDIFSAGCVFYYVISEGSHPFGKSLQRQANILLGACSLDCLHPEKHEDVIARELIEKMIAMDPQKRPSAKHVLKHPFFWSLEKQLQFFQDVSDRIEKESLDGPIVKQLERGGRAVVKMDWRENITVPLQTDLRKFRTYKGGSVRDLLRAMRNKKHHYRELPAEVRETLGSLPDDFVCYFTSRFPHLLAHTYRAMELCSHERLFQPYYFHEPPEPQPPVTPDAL
row,Compound,IC50 [pM]
1,"CC(C)n1c(=O)c(-c2ccc(NS(=O)(=O)CCC(F)(F)F)c(F)c2)cc2cnc(N[C@H]3CCC[C@@H](N(C)C)C3)nc21 [Compound 114, N-(4-(2-(((1S,3R)-3-(Dimethylamino)cyclohexyl)amino)-8-isopropyl-7-oxo-7,8-dihydropyrido[2,3-d]pyrimidin-6-yl)-2-fluorophenyl)-3,3,3-trifluoropropane-1-sulfonamide]",180000
2,"CC(C)n1c(=O)c(-c2ccc(NS(=O)(=O)CC3CCC3(F)F)c(F)c2)cc2cnc(N[C@H]3CC[C@H](N(C)C)CC3)nc21 (single isomer, unassigned) [Compound 153A, 1-(2,2-Difluorocyclobutyl)-N-(4-(2-(((1r,4r)-4-(dimethylamino)cyclohexyl)amino)-8-isopropyl-7-oxo-7,8-dihydropyrido[2,3-d]pyrimidin-6-yl)-2-fluorophenyl)methanesulfonamide]",210
3,"CC(C)n1c(=O)c(-c2cc(F)c(NS(=O)(=O)Cc3ccc(C(F)F)cc3)c(F)c2)nc2cnc(N[C@H]3CC[C@H](N(C)C)CC3)nc21 [Example 244, 1-[4-(Difluoromethyl)phenyl]-N-[4-[2-[[4-(dimethylamino)cyclohexyl]amino]-8-isopropyl-7-oxo-pteridin-6-yl]-2,6-difluoro-phenyl]methanesulfonamide]",200
4,"CCC(F)(F)CS(=O)(=O)Nc1ccc(-c2nc3cnc(N[C@H]4CC[C@H](N(C)C)CC4)nc3n(C(C)C)c2=O)cc1F [Compound 165, N-(4-(2-(((1r,4r)-4-(Dimethylamino)cyclohexyl)amino)-8-isopropyl-7-oxo-7,8-dihydropteridin-6-yl)-2-fluorophenyl)-2,2-difluorobutane-1-sulfonamide hydrochloride]",100
5,"CC(C)n1c(=O)c(-c2cc(F)c(NS(=O)(=O)CCC(F)(F)F)c(F)c2F)cc2cnc(NC3CCC(N(C)C)C(F)C3)nc21 (centres unmarked) [Compound 60, N-(4-(2-((4-(dimethylamino)-3-fluorocyclohexyl)amino)-8-isopropyl-7-oxo-7,8-dihydropyrido[2,3-d]pyrimidin-6-yl)-2,3,6-trifluorophenyl)-3,3,3-trifluoropropane-1-sulfonamide]",200
6,"CC(C)n1c(=O)c(-c2ccc(NS(=O)(=O)N3CCCCC3)c(F)c2)nc2cnc(N[C@@H]3CNC[C@@H](F)C3)nc21 [Compound 162, N-(2-Fluoro-4-(2-(((3S,5S)-5-fluoropiperidin-3-yl)amino)-8-isopropyl-7-oxo-7,8-dihydropteridin-6-yl)phenyl)piperidine-1-sulfonamide]",1300
7,"CC(C)n1c(=O)c(-c2cnc(NS(=O)(=O)CCC(F)(F)F)c(F)c2)cc2cnc(N[C@H]3CC[C@H](N(C)C)CC3)nc21 [Example 222, N-(5-(2-(((1r,4r)-4-(dimethylamino)cyclo-hexyl)amino)-8-isopropyl-7-oxo-7,8-dihydropyrido[2,3-d]-pyrimidin-6-yl)-3-fluoropyridin-2-yl)-3,3,3-trifluoropropane-1-sulfonamide]",300
8,"CC(C)CC(=O)Nc1c(F)cc(-c2cc3cnc(N[C@H]4CC[C@H](N(C)C)CC4)nc3n(C(C)C)c2=O)c(F)c1F [Compound 59, N-(4-(2-(((1r,4r)-4-(Dimethylamino)cyclohexyl)amino)-8-isopropyl-7-oxo-7,8-dihydropyrido[2,3-d]pyrimidin-6-yl)-2,3,6-trifluorophenyl)-3-methylbutanamide]",3200
9,"CC(C)n1c(=O)c(-c2cc(F)c(NS(=O)(=O)c3ccccc3Cl)c(F)c2F)cc2cnc(N[C@@H]3CNC[C@@H](F)C3)nc21 [Compound 61, 2-Chloro-N-(2,3,6-trifluoro-4-(2-(((3S,5S)-5-fluoropiperidin-3-yl)amino)-8-isopropyl-7-oxo-7,8-dihydropyrido[2,3-d]pyrimidin-6-yl)phenyl)benzenesulfonamide hydrochloride]",310
10,"CC(C)n1c(=O)c(-c2cc(F)c(NC(=O)C3CC3F)c(F)c2F)cc2cnc(N[C@H]3CC[C@H](N(C)C)CC3)nc21 (single isomer, unassigned) [Compound 98A, N-(4-(2-(((1r,4r)-4-(Dimethylamino)cyclohexyl)amino)-8-isopropyl-7-oxo-7,8-dihydropyrido[2,3-d]pyrimidin-6-yl)-2,3,6-trifluorophenyl)-2-fluorocyclopropane-1-carboxamide]",2800
11,"CC(C)n1c(=O)c(-c2ccc(NS(=O)(=O)Cc3ccc(C#N)cc3)c(F)c2)nc2cnc(N[C@@H]3CNC[C@@H](F)C3)nc21 [Compound 81, 1-(4-Cyanophenyl)-N-[2-fluoro-4-[2-[[(3S,5S)-5-fluoro-3-piperidyl]amino]-8-isopropyl-7-oxo-pteridin-6-yl]phenyl]methanesulfonamide]",100

# Continued by falling IC50, values first:
row,IC50 [pM],Compound
1,700,"CCn1c(=O)c(-c2cc(F)c(NS(=O)(=O)Cc3c(F)cccc3F)c(F)c2F)cc2cnc(N[C@@H]3CNC[C@@H](F)C3)nc21 [Compound 51, 1-(2,6-difluorophenyl)-N-(4-(8-ethyl-2-(((3S,5S)-5-fluoropiperidin-3-yl)amino)-7-oxo-7,8-dihydropyrido[2,3-d]pyrimidin-6-yl)-2,3,6-trifluorophenyl)methanesulfonamide]"
2,620,"Cc1nc(NS(=O)(=O)c2ccccc2Cl)ccc1-c1cc2cnc(N[C@@H]3CNC[C@@H](F)C3)nc2n(C(C)C)c1=O [Compound 133, 2-Chloro-N-(5-(2-(((3S,5S)-5-fluoropiperidin-3-yl)amino)-8-isopropyl-7-oxo-7,8-dihydropyrido[2,3-d]pyrimidin-6-yl)-6-methylpyridin-2-yl)benzenesulfonamide]"
3,420,"O=c1c(-c2cc(F)c(NS(=O)(=O)Cc3ccccc3)c(F)c2F)cc2cnc(N[C@@H]3CNC[C@@H](F)C3)nc2n1C1CC(F)(F)C1 [Compound 55, N-(4-(8-(3,3-Difluorocyclobutyl)-2-(((3S,5S)-5-fluoropiperidin-3-yl)amino)-7-oxo-7,8-dihydropyrido[2,3-d]pyrimidin-6-yl)-2,3,6-trifluorophenyl)-1-phenylmethanesulfonamide hydrochloride]"
4,320,"CC(C)n1c(=O)c(-c2cc(F)c(NS(=O)(=O)CCC(F)(F)F)c(F)c2)cc2cnc(NC3CC[C@H](N(C)C)C(F)C3)nc21 (single isomer, unassigned) [Compound 118B, N-(4-(2-((4-(Dimethylamino)-3-fluorocyclohexyl)amino)-8-isopropyl-7-oxo-7,8-dihydropyrido[2,3-d]pyrimidin-6-yl)-2,6-difluorophenyl)-3,3,3-trifluoropropane-1-sulfonamide]"
5,300,"CC(C)n1c(=O)c(-c2ccc(NS(=O)(=O)CCC(F)(F)F)c(F)c2)cc2cnc(NC3CCC(N(C)C)C(O)C3)nc21 (centres unmarked) [Compound 226, N-(4-(2-((4-(dimethylamino)-3-hydroxycyclohexyl)amino)-8-isopropyl-7-oxo-7,8-dihydropyrido[2,3-d]pyrimidin-6-yl)-2-fluorophenyl)-3,3,3-trifluoropropane-1-sulfonamide]"
6,280,"CC(C)n1c(=O)c(-c2ccc(NS(=O)(=O)Cc3ccccc3)c(F)c2)nc2cnc(N[C@@H]3CNC[C@@H](F)C3)nc21 [Compound 44, N-(2-Fluoro-4-(2-(((3S,5S)-5-fluoropiperidin-3-yl)amino)-8-isopropyl-7-oxo-7,8-dihydropteridin-6-yl)phenyl)-1-phenylmethanesulfonamide]"
7,240,"COCCN(C)[C@H]1CC[C@H](Nc2ncc3cc(-c4ccc(NS(=O)(=O)CCC(F)(F)F)nc4)c(=O)n(C(C)C)c3n2)CC1 [Compound 126, 3,3,3-Trifluoro-N-(5-(8-isopropyl-2-(((1r,4r)-4-((2-methoxyethyl)(methyl)amino)cyclohexyl)amino)-7-oxo-7,8-dihydropyrido[2,3-d]pyrimidin-6-yl)pyridin-2-yl)propane-1-sulfonamide]"
8,220,"CC(C)n1c(=O)c(-c2cc(F)c(NS(=O)(=O)Cc3ccccc3)c(F)c2)nc2cnc(N[C@@H]3CNC[C@@H](F)C3)nc21 [Compound 45, N-(2,6-Difluoro-4-(2-(((3S,5S)-5-fluoropiperidin-3-yl)amino)-8-isopropyl-7-oxo-7,8-dihydropteridin-6-yl)phenyl)-1-phenylmethanesulfonamide]"
9,200,"CC(C)n1c(=O)c(-c2ccc(NS(=O)(=O)CC3CC(F)(F)C3)c(F)c2)nc2cnc(N[C@H]3CC[C@H](N(C)C)[C@@H](F)C3)nc21 (stereo in doubt) [Compound 193A, 1-(3,3-Difluorocyclobutyl)-N-(4-(2-((4-(dimethylamino)-3-fluorocyclohexyl)amino)-8-isopropyl-7-oxo-7,8-dihydropteridin-6-yl)-2-fluorophenyl)methanesulfonamide]"
10,200,"CC(C)n1c(=O)c(-c2cc(F)c(NS(=O)(=O)CC3CCC3(F)F)c(F)c2)nc2cnc(N[C@H]3CC[C@H](N(C)C)CC3)nc21 (mixture of isomers) [Example 250, 1-(2,2-Difluorocyclobutyl)-N-[4-[2-[[4-(dimethylamino)cyclohexyl]amino]-8-isopropyl-7-oxo-pteridin-6-yl]-2,6-difluoro-phenyl]methanesulfonamide]"
11,150,"CC(C)n1c(=O)c(-c2ccc(NS(=O)(=O)CC3CCCCC3)c(F)c2)cc2cnc(N[C@H]3CC[C@H](N(C)C)CC3)nc21 [Compound 115, 1-Cyclohexyl-N-(4-(2-(((1r,4r)-4-(dimethylamino)cyclohexyl)amino)-8-isopropyl-7-oxo-7,8-dihydropyrido[2,3-d]pyrimidin-6-yl)-2-fluorophenyl)methanesulfonamide]"
12,140,"CC(C)n1c(=O)c(-c2ccc(NS(=O)(=O)CCC(F)(F)F)c(F)c2)cc2cnc(N[C@H]3CC[C@H](N(C)CCF)CC3)nc21 [Compound 157, 3,3,3-trifluoro-N-(2-Fluoro-4-(2-(((1r,4r)-4-((2-fluoroethyl)(methyl)amino)cyclohexyl)amino)-8-isopropyl-7-oxo-7,8-dihydropyrido[2,3-d]pyrimidin-6-yl)phenyl)propane-1-sulfonamide]"
